Laboratory results as given in patent US20030118631A1, “Anti-microbial soluble hemostatic gauze and method of making same” (priority 2001, published 2003).

Experiments:
[1] = test system: Lactobacillus Plantarum; test: Agar dilution minimum inhibition concentration, anaerobic growth base; type: cell-based; details: anaerobic (nitrogen), 37° C., 48 hours, mg antibiotic per liter
[2] = test system: Clostridium Perfringens; type: cell-based; details: anaerobic (nitrogen), 37° C., 48 hours, mg antibiotic per liter
[3] = test system: Fusobacterium Nuleatum; test: Agar dilution minimum inhibition concentration, anaerobic growth base; type: cell-based; details: anaerobic (nitrogen), 37° C., 48 hours, mg antibiotic per liter
[4] = test system: Bacillus Coli Similis; test: Agar dilution minimum inhibition concentration, aerobic growth base; type: cell-based; details: 37° C., 48 hours, mg antibiotic per liter
[5] = test system: Bacillus Coli Immobilis; test: as above; type: cell-based; details: 37° C., 48 hours, mg antibiotic per liter
[6] = test system: Streptococcus Psittac; test: as above; type: cell-based; details: 37° C., 48 hours, mg antibiotic per liter
[7] = test system: Bacillus Pyocyaneus; test: as above; type: cell-based; details: 37° C., 48 hours, mg antibiotic per liter
[8] = test system: Bifidobacterium Infantis; test: Agar dilution minimum inhibition concentration, anaerobic growth base; type: cell-based; details: anaerobic (nitrogen), 37° C., 48 hours, mg antibiotic per liter
[9] = test system: Bacteroides Fragilis; test: as above; type: cell-based; details: anaerobic (nitrogen), 37° C., 48 hours, mg antibiotic per liter
[10] = test system: Klebsiella Pneumoniae; test: Agar dilution minimum inhibition concentration, aerobic growth base; type: cell-based; details: 37° C., 48 hours, mg antibiotic per liter
[11] = test system: Bacteroides Vulgatus; details: anaerobic (nitrogen), 37° C., 48 hours, mg antibiotic per liter
Protocol: (§1) To measure the effectiveness of the our antimicrobial gauze, we tested an antibiotic containing soluble hemostatic gauze material made in accordance with the present invention against the same antibiotic alone. We prepared a growth base for anaeroboic bacteria by mixing 20 grams glucose, 5 grams NaCl, 10 grams protein base, 5 grams yeast powder, 3 grams soluble starch, 20 grams agar and 0.4 grams amino acid. These materials were dissolved in 150 ml distilled water to form a liver paste solution. Then we added 1000 ml. water, adjusted the Ph to 7.2 and autoclaved the material. We prepared another growth base for aerobic bacteria by combining 10 grams beef paste, 10 grams protein base, 3 grams soluble starch, 5 grams NaCl and 20 grams agar in distilled water. Then we added 1000 ml. water, adjusted the Ph to 7.2 and autoclaved the material. We also prepared a series of solutions of the antibiotic chlindamycin in a Ph7.8 phospharese solution. The solutions were: 1280 mg antibiotic/L, 640 mg/L, 320 mg/l, 160 mg/L, 80 mg/L, 40 mg/L, 20 mg/l, 10 mg/L, 5 mg/L, 2.5 mg/L and 1.25 mg/L. We then added 2 ml of each of the diluted antibiotic solutions into a petri dish. Next we added 18 ml of warm (50° C.) autoclaved bacteria growth base prepared as described above for the type of bacteria (anaerobic or aerobic) to be tested to petri dishes to make growth plates. At that point we had growth plates with final antibiotic concentrations of 128, 64, 32, 16, 8, 4, 2, 1, 0.5, 0.25, and 0.125 mg antibiotic per liter.
(§2) We prepared a second series of growth bases with anti-microbial soluble hemostatic gauze to which the antibiotic chlindamycin had been linked. The gauze was prepared in accordance with the following steps.

[12] = test system: Peptostrepococcus; details: anaerobic (nitrogen), 37° C., 48 hours, mg antibiotic per liter
Protocol: as §1, §2

[13] = test system: Actinomyces; details: anaerobic (nitrogen), 37° C., 48 hours, mg antibiotic per liter
Protocol: as §1, §2

[14] = test system: Propionibacterium; test: Agar dilution minimum inhibition concentration, anaerobic growth base; type: cell-based; details: anaerobic (nitrogen), 37° C., 48 hours, mg antibiotic per liter
[15] = test system: Bacillus Canalis Capsulatus; test: Agar dilution minimum inhibition concentration, aerobic growth base; type: cell-based; details: 37° C., 48 hours, mg antibiotic per liter
[16] = test system: Pseudomonas Aeruginosa; test: as above; type: cell-based; details: 37° C., 48 hours, mg antibiotic per liter
[17] = test system: Streptococcus Faccalis; test: as above; type: cell-based; details: 37° C., 48 hours, mg antibiotic per liter
[18] = test system: Serratia; test: as above; type: cell-based; details: 37° C., 48 hours, mg antibiotic per liter
[19] = test system: Bifidobacterium Adolescents; test: Agar dilution minimum inhibition concentration, anaerobic growth base; type: cell-based; details: anaerobic (nitrogen), 37° C., 48 hours, mg antibiotic per liter
[20] = test system: Citrobacter Sp.; test: Agar dilution minimum inhibition concentration, aerobic growth base; type: cell-based; details: 37° C., 48 hours, mg antibiotic per liter
[21] = test system: Staphylococcus Aureus; test: as above; type: cell-based; details: 37° C., 48 hours, mg antibiotic per liter
[22] = test system: Staphylococcus Epidermidis; test: as above; type: cell-based; details: 37° C., 48 hours, mg antibiotic per liter
[23] = test system: Bacteroides Ovatus; test: Agar dilution minimum inhibition concentration, anaerobic growth base; type: cell-based; details: anaerobic (nitrogen), 37° C., 48 hours, mg antibiotic per liter
[24] = test system: Bifidobacterium Longum; test: as above; type: cell-based; details: anaerobic (nitrogen), 37° C., 48 hours, mg antibiotic per liter
[25] = test system: Lactobacillus Acidophilus; test: as above; type: cell-based; details: anaerobic (nitrogen), 37° C., 48 hours, mg antibiotic per liter
[26] = test system: Streptococcus Gamma; test: Agar dilution minimum inhibition concentration, aerobic growth base; type: cell-based; details: 37° C., 48 hours, mg antibiotic per liter

SMILES: CCC[C@@H]1C[C@@H](C(=O)N[C@@H]([C@H]2O[C@H](SC)[C@H](O)[C@@H](O)[C@H]2O)[C@H](C)Cl)N(C)C1 [Chlindamycin, chlindamycin]
- Minimum Inhibited Concentration [1]: 64 mg/L
- Minimum Inhibited Concentration [2]: 0.125 mg/L
- Minimum Inhibited Concentration [3]: 4 mg/L
- Minimum Inhibited Concentration [4]: 128 mg/L
- Minimum Inhibited Concentration [5]: 128 mg/L
- Minimum Inhibited Concentration [6]: 1 mg/L
- Minimum Inhibited Concentration [7]: 128 mg/L
- Minimum Inhibited Concentration [8]: 64 mg/L
- Minimum Inhibited Concentration [9]: 0.5 mg/L
- Minimum Inhibited Concentration [10]: 32 mg/L
- Minimum Inhibited Concentration [11]: 0.125 mg/L
- Minimum Inhibited Concentration [12]: 0.125 mg/L
- Minimum Inhibited Concentration [13]: 0.125 mg/L
- Minimum Inhibited Concentration [14]: 0.25 mg/L
- Minimum Inhibited Concentration [15]: 64 mg/L
- Minimum Inhibited Concentration [16]: 128 mg/L
- Minimum Inhibited Concentration [17]: 1 mg/L
- Minimum Inhibited Concentration [18]: 32 mg/L
- Minimum Inhibited Concentration [19]: 16 mg/L
- Minimum Inhibited Concentration [20]: 64 mg/L
- Minimum Inhibited Concentration [21]: 1 mg/L
- Minimum Inhibited Concentration [22]: 0.5 mg/L
- Minimum Inhibited Concentration [23]: 2 mg/L
- Minimum Inhibited Concentration [24]: 64 mg/L
- Minimum Inhibited Concentration [25]: 32 mg/L
- Minimum Inhibited Concentration [26]: 1 mg/L
